Data as given in patent publication US20210052563A1, “PROTON PUMP INHIBITORS AND METHODS OF USE IN CHEMORADIATION-INDUCED TISSUE INFLAMMATION AND SCARRING” (Baylor College of Medicine, priority 2018, published 2021).

Columns and labels:
[1] = tested on: radiation-induced dermatitis; test: Mouse model of radiation-induced dermatitis: histopathology (H&E, Masson's Trichrome, CD11b, F4/80); format: in vivo, C57BL/6J mice
Experimental: In vivo study: mouse model of radiation-induced dermatitis: a 30-day study was conducted using C57BL/6J mice (Jackson Laboratories, Bar Harbor, Me.) to assess the efficacy of dermaprazole in mitigating radiation-induced dermatitis. The experiment consisted of 1 group receiving no radiation (Group 1) and 5 groups receiving radiation (Groups 2 to 6) (Table 2) from an X-ray source. First, all the animals were prepared for experiment by removing hair from the flank area using an electric shaver and hair removal cream. The lack of skin irritation from the shaving procedure was visually confirmed prior to randomization. Twenty-four hours later, radiation was delivered to pre-defined area (2×2 cm) on the flank of the animals in Groups 2 to 6. To induce dermatitis, the animals were anesthetized using 4% isoflurane in oxygen until a deep plane of anesthesia was achieved. Subsequently, the animals were placed under lead shielding (Braintree Scientific, Braintree, Mass.) to protect the remaining part of the body and expose the flank to a total radiation dose of 30 Gy fractionated as 2×15 Gy on study days 0 and 7 using the same settings described above. Dermaprazole was evaluated in a prophylactic (treatment schedule from day 1 to day 30) and therapeutic (treatment schedule from day 10 to day 30) course. For the prophylactic course, low dose (1%, Group 2) and high dose (2%, Group 3) of dermaprazole were evaluated. For the therapeutic course (Group 4), only the high dose was evaluated. Similarly, the sham (Group 1) and vehicle (Group 5) groups were treated with placebo cream containing no active drug starting from day 0 of the study. As a positive treatment control, 1% hydrocortisone (Group 6) was applied starting from day 0. […] The photographs were blindly evaluated and scored by a certified dermatologist using Common Terminology Criteria for Adverse Events (CTCAE; version 4.0)(79): 0=normal skin appearance; 1=mild erythema; 2=moderate-to-severe erythema; 3=desquamation of 25-50% of irradiated area; 4=desquamation of >50% irradiated area; and 5=frank ulcer. […]

[2] = tested on: radiation-induced dermatitis; test: Mouse model of radiation-induced dermatitis: skin appearance and dermatitis scoring; format: in vivo, C57BL/6J mice
Experimental: In vivo study: mouse model of radiation-induced dermatitis: a 30-day study was conducted using C57BL/6J mice (Jackson Laboratories, Bar Harbor, Me.) to assess the efficacy of dermaprazole in mitigating radiation-induced dermatitis. The experiment consisted of 1 group receiving no radiation (Group 1) and 5 groups receiving radiation (Groups 2 to 6) (Table 2) from an X-ray source. First, all the animals were prepared for experiment by removing hair from the flank area using an electric shaver and hair removal cream. The lack of skin irritation from the shaving procedure was visually confirmed prior to randomization. […] Dermaprazole was evaluated in a prophylactic (treatment schedule from day 1 to day 30) and therapeutic (treatment schedule from day 10 to day 30) course. For the prophylactic course, low dose (1%, Group 2) and high dose (2%, Group 3) of dermaprazole were evaluated. For the therapeutic course (Group 4), only the high dose was evaluated. […] The photographs were blindly evaluated and scored by a certified dermatologist using Common Terminology Criteria for Adverse Events (CTCAE; version 4.0)(79): 0=normal skin appearance; 1=mild erythema; 2=moderate-to-severe erythema; 3=desquamation of 25-50% of irradiated area; 4=desquamation of >50% irradiated area; and 5=frank ulcer. […]

[3] = tested on: chemotherapy-resistant human cancer cell lines; conditions: PPI pretreatment vs no pretreatment; melanoma, colon, breast and ovarian cancer cell lines; cited from earlier work
[4] = tested on: bleomycin-induced lung injury; conditions: systemic administration; cited from earlier work

Structure (SMILES) | ulceration (H&E stain) ([1]; day 30) | collagen accumulation (Masson's Trichrome stain) ([1]; days 16 and 30) | CD11b and F4/80 positive inflammatory cells at the injury site ([1]; immunohistochemical staining of irradiated skin) | skin necrosis ([2]; 16 days and 30 days post-irradiation) | animals with no effect on healing of the wounds ([2]; once daily topical, 30-day model) [%] | change of IC50 values of cisplatin, vinblastine and 5-fluorouracil [3] | lung inflammation and fibrosis [4]
C[C@]12CCC(=O)C=C1CC[C@@H]1[C@@H]2[C@@H](O)C[C@@]2(C)[C@H]1CC[C@]2(O)C(=O)CO [1% hydrocortisone, hydrocortisone] | ulceration is seen by day 30 | Increased collagen deposition | Increased number of inflammatory cells | severe skin necrosis | 90 |  | 
COc1ccc2nc([S@@+]([O-])Cc3ncc(C)c(OC)c3C)[nH]c2c1 [esomeprazole] |  |  |  |  |  | order of magnitude reduction | suppresses lung inflammation and fibrosis
